Measurements from ChEMBL document CHEMBL5584314, “Identification of an m6A Natural Inhibitor, Lobeline, That Reverses Lenvatinib Resistance in Hepatocellular Tumors” (J Nat Prod, 2024).
The source made the active and inactive calls.

Key:
[1] = Toxicity in BALB/c nude mouse PDX model xenografted with human Lenvatinib-resistant HCC/Len cells assessed as changes in body weight at 3 mg/kg, IG cotreated with lobeline 5 times per week for 3 weeks administered 5 times per week for 3 weeks; format: organism-based; details: in vivo, po, 504 h
[2] = test system: Lenvatinib-resistant Hep3B/Len; experiment: Antiproliferative activity against human Lenvatinib-resistant Hep3B/Len cells assessed as inhibition of clone formation ability at 5 to 10 uM preincubated for 72 hrs and measured after 7 to 10 days by crystal violet staining based assay; format: functional, cell-based; details: dose 5-10 µM, time 10-13 day
[3] = test system: Lenvatinib-resistant Hep3B/Len; experiment: Inhibition of cell migration in human Lenvatinib-resistant Hep3B/Len cells at 5 uM incubated for 48 hrs by transwell assay; format: functional, cell-based
[4] = test system: Lenvatinib-resistant Huh7/Len; experiment: Induction of apoptosis in human Lenvatinib-resistant Huh7/Len cells xenografted in BALB/c nude mouse assessed as apoptotic cells in tumor tissue at 3 mg/kg, IG cotreated with lobeline 5 times per week for 3 weeks by immunohistochemistry analysis; format: functional, organism-based
[5] = test system: Lenvatinib-resistant Huh7/Len; experiment: Antiproliferative activity against human Lenvatinib-resistant Huh7/Len cells assessed as inhibition of clone formation ability at 5 to 10 uM preincubated for 72 hrs and measured after 7 to 10 days in presence of lobeline by crystal violet staining based assay; format: functional, cell-based; details: dose 5-10 µM, time 10-13 day
[6] = Toxicity in BALB/c nude mouse xenografted with human Lenvatinib-resistant Huh7/Len cells assessed as changes in body weight at 3 mg/kg, IG administered 5 times per week for 3 weeks; format: organism-based; details: in vivo, po, 504 h
[7] = Toxicity in BALB/c nude mouse PDX model xenografted with human Lenvatinib-resistant HCC/Len cells assessed as changes in organ index at 3 mg/kg, IG administered 5 times per week for 3 weeks; format: organism-based; details: in vivo, po, 504 h
[8] = test system: Lenvatinib-resistant HCC/Len; experiment: Antitumor activity against human Lenvatinib-resistant HCC/Len cells xenografted in BALB/c nude mouse model of PDX assessed as tumor growth inhibition at 3 mg/kg, IG cotreated with lobeline 5 times per week for 3 weeks; format: functional, organism-based
[9] = Toxicity in BALB/c nude mouse PDX model xenografted with human Lenvatinib-resistant HCC/Len cells assessed as changes in organ index at 3 mg/kg, IG cotreated with lobeline 5 times per week for 3 weeks administered 5 times per week for 3 weeks; format: organism-based; details: in vivo, po, 504 h
[10] = Toxicity in BALB/c nude mouse xenografted with human Lenvatinib-resistant Huh7/Len cells assessed as changes in organ index at 3 mg/kg, IG cotreated with lobeline 5 times per week for 3 weeks; format: organism-based; details: in vivo, po, 504 h
[11] = Toxicity in BALB/c nude mouse xenografted with human Lenvatinib-resistant Huh7/Len cells assessed as changes in body weight at 3 mg/kg, IG cotreated with lobeline 5 times per week for 3 weeks; format: organism-based; details: in vivo, po, 504 h
[12] = test system: Lenvatinib-resistant HCC/Len; experiment: Antitumor activity against human Lenvatinib-resistant HCC/Len cells xenografted in BALB/c nude mouse model of PDX assessed as inhibition of tumor volume at 3 mg/kg, IG cotreated with lobeline 5 times per week for 3 weeks relative to control; format: functional; details: po, 504 h
[13] = test system: Lenvatinib-resistant Huh7/Len; experiment: Antiproliferative activity against human Lenvatinib-resistant Huh7/Len cells assessed as inhibition of clone formation ability at 5 to 10 uM preincubated for 72 hrs and measured after 7 to 10 days by crystal violet staining based assay; format: functional, cell-based; details: dose 5-10 µM, time 10-13 day
[14] = test system: Lenvatinib-resistant Hep3B/Len; experiment: Antiproliferative activity against human Lenvatinib-resistant Hep3B/Len cells assessed as inhibition of cell viability up to 40 uM after 72 hrs in presence of lobeline by CCK-8 assay; format: functional, cell-based
[15] = Toxicity in BALB/c nude mouse PDX model xenografted with human Lenvatinib-resistant HCC/Len cells assessed as changes in body weight at 3 mg/kg, IG administered 5 times per week for 3 weeks; format: organism-based; details: in vivo, po, 504 h
[16] = test system: Lenvatinib-resistant Huh7/Len; experiment: Antitumor activity against human Lenvatinib-resistant Huh7/Len cells xenografted in BALB/c nude mouse assessed as reduction in Ki-67 protein expression tumor tissue at 3 mg/kg, IG cotreated with lobeline 5 times per week for 3 weeks by immunohistochemistry analysis; format: functional; design: scale not given: the % may be the effect or the level left
[17] = test system: Lenvatinib-resistant HCC/Len; experiment: Antitumor activity against human Lenvatinib-resistant HCC/Len cells xenografted in BALB/c nude mouse model of PDX assessed as reduction in m6A protein expression tumor tissue at 3 mg/kg, IG cotreated with lobeline 5 times per week for 3 weeks by immunohistochemistry analysis; format: functional, organism-based
[18] = test system: Lenvatinib-resistant HCC/Len; experiment: Antitumor activity against human Lenvatinib-resistant HCC/Len cells xenografted in BALB/c nude mouse model of PDX assessed as reduction in Ki-67 protein expression tumor tissue at 3 mg/kg, IG cotreated with lobeline 5 times per week for 3 weeks by immunohistochemistry analysis; format: functional, organism-based
[19] = test system: Lenvatinib-resistant Huh7/Len; experiment: Antitumor activity against human Lenvatinib-resistant Huh7/Len cells xenografted in BALB/c nude mouse assessed as inhibition of tumor volume at 3 mg/kg, IG cotreated with lobeline 5 times per week for 3 weeks relative to control; format: functional; details: po, 504 h
[20] = test system: Lenvatinib-resistant Hep3B/Len; experiment: Inhibition of cell migration in human Lenvatinib-resistant Hep3B/Len cells at 5 uM incubated for 48 hrs in presence of lobeline by transwell assay relative to control; format: functional
[21] = test system: Lenvatinib-resistant Hep3B/Len; experiment: Antiproliferative activity against human Lenvatinib-resistant Hep3B/Len cells assessed as inhibition of clone formation ability at 5 to 10 uM preincubated for 72 hrs and measured after 7 to 10 days in presence of lobeline by crystal violet staining based assay; format: functional, cell-based; details: dose 5-10 µM, time 10-13 day
[22] = Toxicity in BALB/c nude mouse xenografted with human Lenvatinib-resistant Huh7/Len cells assessed as changes in organ index at 3 mg/kg, IG administered 5 times per week for 3 weeks; format: organism-based; details: in vivo, po, 504 h
[23] = test system: Lenvatinib-resistant Huh7/Len; experiment: Inhibition of cell migration in human Lenvatinib-resistant Huh-7/Len cells at 5 uM incubated for 48 hrs in presence of lobeline by transwell assay relative to control; format: functional
[24] = test system: Lenvatinib-resistant Huh7/Len; experiment: Antitumor activity against human Lenvatinib-resistant Huh7/Len cells xenografted in BALB/c nude mouse assessed as tumor growth inhibition at 3 mg/kg, IG cotreated with lobeline 5 times per week for 3 weeks; format: functional, organism-based
[25] = test system: Lenvatinib-resistant Huh7/Len; experiment: Inhibition of cell migration in human Lenvatinib-resistant Huh7/Len cells at 5 uM incubated for 48 hrs by transwell assay; format: functional, cell-based
[26] = test system: Lenvatinib-resistant Huh7/Len; experiment: Antiproliferative activity against human Lenvatinib-resistant Huh7/Len cells assessed as inhibition of cell viability up to 40 uM after 72 hrs in presence of lobeline by CCK-8 assay; format: functional, cell-based
[27] = target: N6-adenosine-methyltransferase catalytic subunit (Homo sapiens) (UniProt Q86U44); experiment: Inhibition of METTL3 in human Lenvatinib-resistant Huh7/Len cells assessed as effect on TET1 mRNA expression level at 2 uM incubated for 72 hrs by RT-PCR analysis; format: cell-based
Chain of N6-adenosine-methyltransferase catalytic subunit (Homo sapiens) (Q86U44 whole entry): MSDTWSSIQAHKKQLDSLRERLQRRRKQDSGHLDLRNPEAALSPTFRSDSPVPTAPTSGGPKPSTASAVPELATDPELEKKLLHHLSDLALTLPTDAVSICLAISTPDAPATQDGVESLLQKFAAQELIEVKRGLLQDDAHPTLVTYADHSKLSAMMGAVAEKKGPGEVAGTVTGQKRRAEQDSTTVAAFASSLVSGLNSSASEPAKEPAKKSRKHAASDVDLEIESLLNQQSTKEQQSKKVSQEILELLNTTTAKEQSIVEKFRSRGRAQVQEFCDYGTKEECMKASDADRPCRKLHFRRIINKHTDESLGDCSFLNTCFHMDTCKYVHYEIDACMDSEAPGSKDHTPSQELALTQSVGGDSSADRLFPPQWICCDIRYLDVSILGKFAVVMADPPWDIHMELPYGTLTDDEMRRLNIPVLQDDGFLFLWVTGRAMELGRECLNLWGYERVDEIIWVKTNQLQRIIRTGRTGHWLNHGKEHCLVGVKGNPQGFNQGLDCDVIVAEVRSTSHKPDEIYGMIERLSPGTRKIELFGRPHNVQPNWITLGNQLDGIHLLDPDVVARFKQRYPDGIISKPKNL

[28] = target: N6-adenosine-methyltransferase catalytic subunit (Homo sapiens) (UniProt Q86U44); experiment: Inhibition of METTL3 in human Lenvatinib-resistant Huh7/Len cells assessed as effect on FGFR3 mRNA expression level at 2 uM incubated for 72 hrs by RT-PCR analysis; format: cell-based
[29] = target: N6-adenosine-methyltransferase catalytic subunit (Homo sapiens) (UniProt Q86U44); experiment: Inhibition of METTL3 in human Lenvatinib-resistant Huh7/Len cells assessed as effect on LATS1 mRNA expression level at 2 uM incubated for 72 hrs by RT-PCR analysis; format: cell-based
[30] = target: N6-adenosine-methyltransferase catalytic subunit (Homo sapiens) (UniProt Q86U44); experiment: Inhibition of METTL3 in human Lenvatinib-resistant Huh7/Len cells assessed as effect on IFIT2 mRNA expression level at 2 uM incubated for 72 hrs by RT-PCR analysis; format: cell-based
[31] = target: N6-adenosine-methyltransferase catalytic subunit (Homo sapiens) (UniProt Q86U44); experiment: Inhibition of METTL3 in human Lenvatinib-resistant Huh7/Len cells assessed as effect on AKT1 mRNA expression level at 2 uM incubated for 72 hrs by RT-PCR analysis; format: cell-based
[32] = target: N6-adenosine-methyltransferase catalytic subunit (Homo sapiens) (UniProt Q86U44); experiment: Inhibition of METTL3 in human Lenvatinib-resistant Huh7/Len cells assessed as effect on NPCL1 mRNA expression level at 2 uM incubated for 72 hrs by RT-PCR analysis; format: cell-based
[33] = target: N6-adenosine-methyltransferase catalytic subunit (Homo sapiens) (UniProt Q86U44); experiment: Inhibition of METTL3 in human Lenvatinib-resistant Huh7/Len cells assessed as effect on ADAMTS9 mRNA expression level at 2 uM incubated for 72 hrs by RT-PCR analysis; format: cell-based
[34] = target: N6-adenosine-methyltransferase catalytic subunit (Homo sapiens) (UniProt Q86U44); experiment: Inhibition of METTL3 in human Lenvatinib-resistant Huh7/Len cells assessed as effect on MMP13 mRNA expression level at 2 uM incubated for 72 hrs by RT-PCR analysis; format: cell-based
[35] = target: N6-adenosine-methyltransferase catalytic subunit (Homo sapiens) (UniProt Q86U44); experiment: Inhibition of METTL3 in human Lenvatinib-resistant Huh7/Len cells assessed as effect on CTSL mRNA expression level at 2 uM incubated for 72 hrs by RT-PCR analysis; format: cell-based
[36] = target: N6-adenosine-methyltransferase catalytic subunit (Homo sapiens) (UniProt Q86U44); experiment: Inhibition of METTL3 in human Lenvatinib-resistant Huh7/Len cells assessed as effect on MYC mRNA expression level at 2 uM incubated for 72 hrs by RT-PCR analysis; format: cell-based
[37] = target: N6-adenosine-methyltransferase catalytic subunit (Homo sapiens) (UniProt Q86U44); experiment: Inhibition of METTL3 in human Lenvatinib-resistant Huh7/Len cells assessed as effect on UCK2 mRNA expression level at 2 uM incubated for 72 hrs by RT-PCR analysis; format: cell-based
[38] = target: N6-adenosine-methyltransferase catalytic subunit (Homo sapiens) (UniProt Q86U44); experiment: Inhibition of METTL3 in human Lenvatinib-resistant Huh7/Len cells assessed as effect on SLC7A11 mRNA expression level at 2 uM incubated for 72 hrs by RT-PCR analysis; format: cell-based
[39] = target: N6-adenosine-methyltransferase catalytic subunit (Homo sapiens) (UniProt Q86U44); experiment: Inhibition of METTL3 in human Lenvatinib-resistant Huh7/Len cells assessed as effect on HNF4A mRNA expression level at 2 uM incubated for 72 hrs by RT-PCR analysis; format: cell-based
[40] = target: N6-adenosine-methyltransferase catalytic subunit (Homo sapiens) (UniProt Q86U44); experiment: Inhibition of METTL3 in human Huh-7 cells assessed as down regulation of m6A RNA level at 2 uM incubated for 72 hrs by colorimetric analysis; format: cell-based
[41] = target: N6-adenosine-methyltransferase catalytic subunit (Homo sapiens) (UniProt Q86U44); experiment: Inhibition of METTL3 in human Lenvatinib-resistant Huh7/Len cells assessed as effect on MMP3 mRNA expression level at 2 uM incubated for 72 hrs by RT-PCR analysis; format: cell-based
[42] = target: N6-adenosine-methyltransferase catalytic subunit (Homo sapiens) (UniProt Q86U44); experiment: Inhibition of METTL3 in human Lenvatinib-resistant Huh7/Len cells assessed as effect on EZH2 mRNA expression level at 2 uM incubated for 72 hrs by RT-PCR analysis; format: cell-based
[43] = target: N6-adenosine-methyltransferase catalytic subunit (Homo sapiens) (UniProt Q86U44); experiment: Inhibition of METTL3 in human Lenvatinib-resistant Huh7/Len cells assessed as effect on DEK mRNA expression level at 2 uM incubated for 72 hrs by RT-PCR analysis; format: cell-based
[44] = target: N6-adenosine-methyltransferase catalytic subunit (Homo sapiens) (UniProt Q86U44); experiment: Inhibition of METTL3 in human Lenvatinib-resistant Huh7/Len cells assessed as effect on TIBIM6 mRNA expression level at 2 uM incubated for 72 hrs by RT-PCR analysis; format: cell-based
[45] = target: N6-adenosine-methyltransferase catalytic subunit (Homo sapiens) (UniProt Q86U44); experiment: Inhibition of METTL3 in human Lenvatinib-resistant Huh7/Len cells assessed as effect on GATA3 mRNA expression level at 2 uM incubated for 72 hrs by RT-PCR analysis; format: cell-based
[46] = target: N6-adenosine-methyltransferase catalytic subunit (Homo sapiens) (UniProt Q86U44); experiment: Inhibition of METTL3 in human Lenvatinib-resistant Huh7/Len cells assessed as effect on IFFO1 mRNA expression level at 2 uM incubated for 72 hrs by RT-PCR analysis; format: cell-based
[47] = target: N6-adenosine-methyltransferase catalytic subunit (Homo sapiens) (UniProt Q86U44); experiment: Inhibition of METTL3 in human Lenvatinib-resistant Huh7/Len cells assessed as effect on CRB3 mRNA expression level at 2 uM incubated for 72 hrs by RT-PCR analysis; format: cell-based

COc1cc2nccc(Oc3ccc(NC(=O)NC4CC4)c(Cl)c3)c2cc1C(N)=O [LENVATINIB]
42%: inhibition at 5 µM [20] | inhibition at 5 µM [23]
68%: inhibition in vivo at 3 mg/kg [19]
Non-Toxic: Activity [1] | Activity [6] | Activity [7] | Activity [9] | Activity [10] | Activity [11] | Activity [15] | Activity [22]
60%: inhibition in vivo at 3 mg/kg [12]
inactive: inhibition [2] | inhibition [3] | inhibition [5] | inhibition [13] | inhibition [21] | inhibition [25]
active: Activity [4] | TGI [8] | inhibition [14] | Activity [17] | Activity [18] | TGI [24] | inhibition [26]
30%: Activity [16]

O=C(NCc1cn2cc(CNCC3CCCCC3)ccc2n1)c1cc(=O)n2ccccc2n1
active: inhibition [27] | inhibition [28] | inhibition [29] | inhibition [30] | inhibition [31] | inhibition [32] | inhibition [33] | inhibition [34] | inhibition [35] | inhibition [36] | inhibition [37] | inhibition [38] | inhibition [39] | inhibition [41] | inhibition [42] | inhibition [43] | inhibition [44] | inhibition [45] | inhibition [46] | inhibition [47]
18%: inhibition [40]
